What was measured:
Experiment in all cases: cell viability (% survival relative to DMSO control); higher = less cytotoxic
Settings in all cases: 72 h
[1] = system: myeloid leukemia patient primary cells Pat.9
Method in brief: (§1)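 Thawed mononuclear cells from AML or CML patients were purified on Ficoll and cultured for 72 h in RPMI 1640 with 10% FBS, at 10,000 cells/well, on 384-well plates carrying 70 pre-printed compounds at 1–10,000 nM in five tenfold steps, in duplicate. Viability came from CellTiter-Glo, normalised against DMSO and against 10 μM proteasome inhibitor. Any area under the curve given was derived from log-logistic curve fits in the drc and PharmacoGx R packages, and these fits had four parameters.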

[2] = system: myeloid leukemia patient primary cells Pat.15
Method in brief: as §1

[3] = system: myeloid leukemia patient primary cells Pat.7
Method in brief: as §1

[4] = system: myeloid leukemia patient primary cells Pat.3
Method in brief: as §1

[5] = system: myeloid leukemia patient primary cells Pat.12
Method in brief: as §1

[6] = system: myeloid leukemia patient primary cells Pat.11
Method in brief: as §1

[7] = system: myeloid leukemia patient primary cells Pat.4
Method in brief: as §1

[8] = system: myeloid leukemia patient primary cells Pat.13
Method in brief: as §1

[9] = system: myeloid leukemia patient primary cells Pat.6
Method in brief: as §1

[10] = system: myeloid leukemia patient primary cells Pat.5
Method in brief: as §1

[11] = system: myeloid leukemia patient primary cells Pat.1
Method in brief: as §1

MV4-11 = system: MV4-11
Experimental: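 8x8 drug-combination matrices (0–5000 nM; rosiglitazone and lestaurtinib 0–1000 nM) were run in MV4-11 cells for 72 h with CellTiter-Glo read-out. Survival is normalised to DMSO and 10 µM bortezomib and clipped at 100%.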

Cc1c2c(=O)n(-c3ccccc3Cl)[nH]c2cc(=O)n1Cc1ccccn1
cell viability [%]
Settings | 1 nM | 10 nM | 100 nM | 1000 nM | 10000 nM
[1] | 1.24 | 62.4 | 54.9 | 100 | 100
[2] | 77.3 | 83.4 | 81.8 | 95.5 | 93
[3] | 13.2 | 82.9 | 63.7 | 91 | > 100
[4] | 25.8 | 94.3 | 92.2 | > 100 | > 100
[5] | 89.5 | 97.6 | 99.3 | 88.3 | 92.2
[6] | 88 | 95.7 | 88.1 | 99.3 | 99.1
[7] | 63.6 | 90.8 | 81.5 | 98.5 | 72.8
[8] | 66.5 | 80 | 92.6 | 88.9 | 92.5
[9] | 84.6 | 91.1 | 91.7 | > 100 | > 100
[10] | 3.33 | 9.25 | 36.7 | 81.3 | 85.9
[11] | 53.7 | 89.9 | 91.5 | 96.7 | 85.5

O=c1cc(N2CCOCC2)oc2c(-c3ccccc3)cccc12
cell viability [%]
Settings | 1 nM | 10 nM | 100 nM | 1000 nM | 10000 nM
[1] | 63.7 | 15.2 | 77.7 | 54.8 | 12.5
[2] | 77.5 | > 100 | 97 | 81.7 | 10.2
[3] | 84.4 | 64.8 | 94.8 | 92.1 | 80.5
[4] | 96.2 | 37.6 | 92.2 | 80 | 61.6
[5] | 91.4 | 98.3 | 92.6 | 97.4 | 92.4
[6] | 88.7 | 94.2 | 96.7 | 91.1 | 65.2
[7] | 78.8 | 98.5 | 86.1 | 63.1 | 14.4
[8] | 88.7 | 95.7 | 83.6 | 91.4 | 45.6
[9] | 91.8 | 82.3 | 93.2 | 97 | 68.3
[10] | 47.8 | 0.265 | 70.4 | 58.3 | < 0
[11] | 77.8 | 83.5 | 78 | 63.6 | 27.5

O=C1C(SCCO)=C(SCCO)C(=O)c2ccccc21
cell viability [%]
Settings | 1 nM | 10 nM | 100 nM | 1000 nM | 10000 nM
[1] | 1.27 | 95.1 | 28.7 | < 0 | < 0
[2] | 82.6 | 89.3 | 63.2 | 2.59 | 0.4
[3] | 37.3 | 96.4 | 57.1 | < 0 | < 0
[4] | 21.4 | 97.2 | 95.5 | 9.9 | < 0
[5] | 94.2 | 99.6 | 92 | 2.07 | < 0
[6] | 96.1 | 91.4 | 99.8 | 7.63 | 0.114
[7] | 76.4 | 89.5 | > 100 | 3.28 | 2.39
[8] | 61.2 | 90.8 | 96.4 | 76.4 | < 0
[9] | 77.1 | > 100 | 99.3 | 71.1 | < 0
[10] | 2.39 | 98.5 | 57.2 | 2.01 | 2.39
[11] | 81.5 | 92.4 | 88.1 | < 0 | < 0

Cn1cc(-c2ccncc2)c(-c2ccc(OCc3ccc4ccccc4n3)cc2)n1
cell viability [%]
Settings | 1 nM | 10 nM | 100 nM | 1000 nM | 10000 nM
[1] | 62.4 | 36.5 | 32.9 | 3.45 | 11.7
[2] | 94.3 | 84.7 | 97.6 | 83.1 | 75.2
[3] | 90.5 | 73.5 | 82.7 | 17.1 | 32.4
[4] | 91.6 | 90.2 | > 100 | 48.8 | 29.9
[5] | 98.4 | 97 | > 100 | 82.3 | 87.9
[6] | 99.1 | 98.1 | > 100 | 87.9 | 99.3
[7] | 93.5 | 82.6 | 90.3 | 85.4 | 97
[8] | 88.2 | 87 | 87.9 | 70.8 | 53.5
[9] | 94.1 | 88.2 | 95.8 | 73.5 | 68.8
[10] | 26.3 | 1.33 | 18 | 0.265 | < 0
[11] | 82.2 | 91.2 | 97.1 | 73 | 73.6

O=C(O)CC[N+](=O)[O-] [3-nitropropionic acid]
cell viability [%]
Settings | 1 nM | 10 nM | 100 nM | 1000 nM | 10000 nM
[1] | 80.9 | 66.3 | 81.6 | 71.5 | 2.42
[2] | 92.7 | 79.1 | 98.7 | 94.9 | 2.04
[3] | 98.1 | 99.9 | 82.6 | 90.8 | 44.9
[4] | 91.5 | 93.8 | 99.8 | 92.1 | 3.01
[5] | 97.9 | 84 | > 100 | 91.5 | 48.2
[6] | 97.4 | 90.2 | 97.5 | 99.5 | 97.4
[7] | 83.6 | 84.5 | 99.3 | 95.6 | 5.84
[8] | 87.3 | 92.4 | 95.5 | 88.3 | 70.8
[9] | > 100 | 93 | > 100 | 96.8 | 90
[10] | 85.9 | 50.1 | 81.8 | 67.1 | 0.265
[11] | 84.1 | 94.1 | > 100 | 88.4 | 68.5

O=C(O)CC[N+](=O)[O-] [3-nitropropionic acid] + CCn1c(=Cc2cccc[n+]2CC)sc(=C2Sc3ccccc3N2C)c1=O [MKT 077]
cell viability [%], MV4-11
Settings | drug1 concentration 5 nM | drug1 concentration 10 nM | drug1 concentration 50 nM | drug1 concentration 100 nM | drug1 concentration 500 nM | drug1 concentration 1000 nM | drug1 concentration 5000 nM
drug2 concentration 5 nM | 89.1 | 97 | > 100 | 86.8 | > 100 | > 100 | 75.6
drug2 concentration 10 nM | 89.2 | > 100 | > 100 | 83.7 | 98.1 | > 100 | > 100
drug2 concentration 50 nM | > 100 | > 100 | > 100 | 84.1 | > 100 | 81.3 | > 100
drug2 concentration 100 nM | 97.3 | > 100 | 93.7 | 84.3 | > 100 | 88.2 | 68.4
drug2 concentration 500 nM | > 100 | 96 | 92.7 | > 100 | 94.3 | 91.4 | 86.1
drug2 concentration 1000 nM | 89.6 | 97.4 | 92.8 | > 100 | 97.6 | > 100 | 65.1
drug2 concentration 5000 nM | 72.5 | 80 | 96.6 | > 100 | 87.2 | 97.2 | 79.8

Cc1[nH]nc(C(F)(F)F)c1Cc1sc2c(c1C(=O)N1C[C@](C)(O)CO1)c(=O)n(C)c(=O)n2C(C)C [AZD3965]
cell viability [%]
Settings | 1 nM | 10 nM | 100 nM | 1000 nM | 10000 nM
[1] | > 100 | 34.8 | > 100 | 74.3 | 86.9
[2] | 84 | 98.8 | 92.7 | 96.7 | 93.6
[3] | 64 | 45.1 | 93.6 | 99.9 | 98.5
[4] | 86.2 | 76.4 | > 100 | 92.3 | 94.2
[5] | 93.3 | 94 | > 100 | 99.9 | 98.2
[6] | 93.7 | 91.6 | > 100 | > 100 | 88.6
[7] | 87.3 | 98.5 | 98.1 | > 100 | > 100
[8] | 85.6 | 69.2 | 93.7 | 97.4 | 81.1
[9] | 90.7 | 83.2 | 97.7 | 94.9 | 96.1
[10] | 82.2 | 5.69 | 65 | 55.7 | 44.5
[11] | 93.1 | 89.5 | 97.5 | 95.2 | 93

O=C(/C=C/c1ccc(O)c(O)c1)OCCc1ccccc1 [Caffeic acid phenethyl ester]
cell viability [%]
Settings | 1 nM | 10 nM | 100 nM | 1000 nM | 10000 nM
[1] | 68.9 | 84.8 | 8.63 | 11.1 | 11.8
[2] | 96.5 | 85.8 | 96.1 | 64.9 | 40.5
[3] | 74.4 | 79.4 | 78.2 | 16.3 | < 0
[4] | 92 | 83.1 | 39.1 | 41.7 | 3.62
[5] | > 100 | 95.5 | > 100 | 57.4 | 34.5
[6] | 96.1 | 97.8 | > 100 | 73.5 | 38
[7] | 89.5 | 87.7 | 86.2 | 16.7 | 2.41
[8] | > 100 | 91 | 95.8 | 87.2 | 42
[9] | 98 | 93.6 | 96.9 | 65.7 | 35.2
[10] | 65.2 | 69.6 | 55.9 | 4.78 | 21.6
[11] | 98.5 | 93 | 98.4 | 63.3 | 44
